Data taken from US20190252037A1 (priority 2016, published 2019).

System: FluB polymerase K631A+R634A
Assay type: binding, human influenza B/Memphis/13/03

## Pol II CTD peptide, four heptad repeats Tyr-Ser-Pro-Thr-SerP-Pro-Ser (28 amino acids), FAM-labelled at the N-terminal end for binding assays (Covalab) [28-mer SeP5 peptide]
  decrease in the binding affinity compared to wild type: 2.5 fold
